The values that follow come from patent US12716055B2, “Treatment of disc degenerative disease and stimulation of proteoglycan synthesis by fibroblast conditioned media and formulations thereof” (FIBROBIOLOGICS, INC., priority 2019, dated 2026).

The assay deals with Neonatal foreskin fibroblasts. The assay is described as follows: EGF production in foreskin fibroblasts cultured with naltrexone and TLR agonists (ELISA). It counts as cell-based. The following applies: treatment of fibroblasts with opioid receptor antagonist, 12 hours of culture, 50% confluent. The source says:
The present example characterizes the use of naltrexone and a TLR agonist to stimulate EGF production in foreskin fibroblasts as an example of a type of fibroblasts.
Neonatal foreskin fibroblasts were obtained from ATCC and cultured in typical DMEM culture media containing 10% fetal calf serum and antibiotics. After 3 days of culture, fibroblasts where plated in 12 well plates and cultured at 50% confluent conditions. Addition of naltrexone (Sigma Aldrich®) and the indicated TLR agonists was performed for 12 hours of culture. Pam3CSK4 was added at a total concentration of 1 ug/ml. LPS was added at 0.5 ug/ml. CpG was added at 0.2 ug/ml. Concentration of EGF was assessed using ELISA (R&D Systems).

Regarding `O=C1CC[C@@]2(O)[C@H]3Cc4ccc(O)c5c4[C@@]2(CCN3CC2CC2)[C@H]1O5` [naltrexone], the “production of growth factors including EGF by fibroblasts” value is recorded as “induce production of various growth factors including EGF”.
